Laboratory results as given in ChEMBL document CHEMBL5518163, “Brazilin-7-acetate, a novel potential drug of Parkinson's disease, hinders the formation of α-synuclein fibril, mitigates cytotoxicity, and decreases oxidative stress” (Eur J Med Chem, 2024).
Active and inactive are the calls of the source. No cut-off for these calls is given here.

Columns and labels:
Caenorhabditis elegans [1] = test: Improvement in life span of transgenic Caenorhabditis elegans NL5901 expressing YFP-tagged alpha-synuclein assessed as decrease in death rate at 100 uM incubated for 5 days; format: functional, organism-based; conditions: time 5.0 day
Caenorhabditis elegans [2] = test: Improvement in life span of transgenic Caenorhabditis elegans NL5901 expressing YFP-tagged alpha-synuclein assessed as increase in average lifespan at 100 uM (reference value: 8.52 day); format: functional; conditions: time 5 day
PC-12 [3] = test: Protection against alpha-synuclein induced rat PC12 cells death assessed as survival rate at alpha-synuclein to compound molar ratio 1:0.5 pre-incubated with alpha-synuclein for 10 days followed by cell addition and measured after 48 hrs by MTT assay (reference value: 58.07%); format: functional
Caenorhabditis elegans [4] = test: In vivo inhibition of alpha-synuclein aggregation in transgenic Caenorhabditis elegans NL5901 expressing YFP-tagged alpha-synuclein at 100 uM under L4 stage to adult stage on day 5 and 10 by fluorescence based confocal microscope analysis; format: functional; conditions: time 5.0 day
PC-12 [5] = test: Protection against alpha-synuclein induced rat PC12 cells death assessed as survival rate at alpha-synuclein to compound molar ratio 1:2 pre-incubated with alpha-synuclein for 10 days followed by cell addition and measured after 48 hrs by MTT assay (reference value: 58.07%); format: functional
PC-12 [6] = test: Cytotoxicity against rat PC12 cells assessed as survival rate at 100 uM incubated for 10 days by MTT assay relative to control; format: functional; conditions: time 10 day
Caenorhabditis elegans [7] = test: Improvement in movement disorder in transgenic Caenorhabditis elegans NL5901 expressing YFP-tagged alpha-synuclein assessed as increase in number of bends at 100 uM measured on day 5 (reference value: 29.5); format: functional; conditions: time 5 day
Caenorhabditis elegans [8] = test: Antioxidant activity against transgenic Caenorhabditis elegans NL5901 expressing YFP-tagged alpha-synuclein assessed as decrease in MDA content at 100 uM incubated for 5 days (reference value: 288.94 %); format: functional; design: scale not given: the % may be the effect or the level left; conditions: time 5 day
Caenorhabditis elegans [9] = test: Inhibition of oxidative stress in Caenorhabditis elegans NL5901 expressing YFP-tagged alpha-synuclein assessed as decrease in ROS level by measuring average fluorescence intensity at 100 uM incubated for 5 days by DHE staining based confocal laser scanning microscope analysis (reference value: 1600%); format: functional; design: scale not given: the % may be the effect or the level left; conditions: time 5 day
Caenorhabditis elegans [10] = test: Improvement in life span of transgenic Caenorhabditis elegans NL5901 expressing YFP-tagged alpha-synuclein assessed as increase in lifespan at 100 uM (reference value: 16 day); format: functional; conditions: time 5 day
PC-12 [11] = test: Cytotoxicity against rat PC12 cells assessed as survival rate at 50 uM incubated for 10 days by MTT assay relative to control; format: functional; conditions: time 10 day
Caenorhabditis elegans [12] = test: Improvement in movement disorder in transgenic Caenorhabditis elegans NL5901 expressing YFP-tagged alpha-synuclein assessed as increase in number of bends at 100 uM measured on day 10 (reference value: 11.1); format: functional; conditions: time 5 day
Caenorhabditis elegans [13] = test: Antioxidant activity against transgenic Caenorhabditis elegans NL5901 expressing YFP-tagged alpha-synuclein assessed as increase in GSH-PX activity at 100 uM incubated for 5 days (reference value: 46.36 %); format: functional; conditions: time 5 day
[14] = In vivo inhibition of alpha-synuclein aggregation in transgenic Caenorhabditis elegans NL5901 expressing YFP-tagged alpha-synuclein assessed as quantity of plaques at 100 uM on day 10 by fluorescence based confocal microscope analysis (reference value: 31.5); format: functional; conditions: time 5 day
[15] = In vivo inhibition of alpha-synuclein aggregation in transgenic Caenorhabditis elegans NL5901 expressing YFP-tagged alpha-synuclein assessed as quantity of plaques at 100 uM on day 5 by fluorescence based confocal microscope analysis (reference value: 24.7); format: functional; conditions: time 5 day
Caenorhabditis elegans [16] = test: In vivo inhibition of alpha-synuclein aggregation in transgenic Caenorhabditis elegans NL5901 expressing YFP-tagged alpha-synuclein assessed as reduction in number of alpha-synuclein aggregates plaques at 100 uM incubated for 5 days by fluorescence based confocal microscope analysis; format: functional; conditions: time 5.0 day
Caenorhabditis elegans [17] = test: Antioxidant activity in transgenic Caenorhabditis elegans NL5901 expressing YFP-tagged alpha-synuclein assessed as increase in SOD activity at 100 uM incubated for 5 days (reference value: 33.32 %); format: functional; conditions: time 5 day
PC-12 [18] = test: Cytotoxicity against rat PC12 cells assessed as survival rate at 25 uM incubated for 10 days by MTT assay relative to control; format: functional; conditions: time 10 day
Caenorhabditis elegans [19] = test: Antioxidant activity against transgenic Caenorhabditis elegans NL5901 expressing YFP-tagged alpha-synuclein assessed as increase in lipid content by measuring fluorescence intensity at 100 uM incubated for 5 days by Nile Red staining based confocal laser scanning microscope analysis (reference value: 41.32 %); format: functional; conditions: time 5 day
PC-12 [20] = test: Protection against alpha-synuclein induced rat PC12 cells death assessed as survival rate at alpha-synuclein to compound molar ratio 1:1 pre-incubated with alpha-synuclein for 10 days followed by cell addition and measured after 48 hrs by MTT assay (reference value: 58.07%); format: functional
Caenorhabditis elegans [21] = test: Inhibition of oxidative stress in transgenic Caenorhabditis elegans NL5901 expressing YFP-tagged alpha-synuclein assessed as reduction in ROS level by measuring fluorescence intensity at 100 uM incubated for 5 days by DHE staining based confocal laser scanning microscope analysis; format: functional, organism-based; conditions: time 5.0 day
[22] = target: Alpha-synuclein (Homo sapiens) (UniProt P37840); test: Inhibition of recombinant alpha-synuclein (unknown origin) fibrillation at 1 to 20 uM measured after 30 mins by ThT fluorescence based spectrofluorometer analysis relative to control; conditions: dose 1-20 µM
PC-12 [23] = test: Cytotoxicity against rat PC12 cells assessed as survival rate at 50 to 100 uM incubated for 10 days by MTT assay relative to control; format: functional; conditions: dose 50-100 µM, time 10 day
Caenorhabditis elegans [24] = test: Antioxidant activity against transgenic Caenorhabditis elegans NL5901 expressing YFP-tagged alpha-synuclein assessed as decrease in MDA content relative to control; format: functional; design: scale not given: the % may be the effect or the level left
Caenorhabditis elegans [25] = test: Antioxidant activity against transgenic Caenorhabditis elegans NL5901 expressing YFP-tagged alpha-synuclein assessed as increase in lipid content relative to control; format: functional

CC(=O)Oc1ccc2c(c1)OC[C@]1(O)Cc3cc(O)c(O)cc3[C@H]21
Activity (Caenorhabditis elegans [1]): Active | ILS (Caenorhabditis elegans [2]): 10.35 days | Activity (PC-12 [3]): 72.26% | inhibition (Caenorhabditis elegans [4]): Active | Activity (PC-12 [5]): 93.51% | Activity (PC-12 [6]): 60.46% | Activity (Caenorhabditis elegans [7]): 8.4 | Activity (Caenorhabditis elegans [8]): 133% | Activity (Caenorhabditis elegans [9]): 723.6% | ILS (Caenorhabditis elegans [10]): 19 days | Activity (PC-12 [11]): 66.74% | Activity (Caenorhabditis elegans [12]): 7.6 | Activity (Caenorhabditis elegans [13]): 81.81% | Activity [14]: 16.2 | Activity [15]: 7.2 | inhibition (Caenorhabditis elegans [16]): Active | Activity (Caenorhabditis elegans [17]): 60% | Activity (PC-12 [18]): 82.15% | Activity (Caenorhabditis elegans [19]): 57.69% | Activity (PC-12 [20]): 85.21% | Activity (Caenorhabditis elegans [21]): Active

COc1ccc(-c2coc3cc(O)ccc3c2=O)cc1O
inhibition [22]: 82.3%

Oc1ccc2c(c1)OC[C@]1(O)Cc3cc(O)c(O)cc3[C@H]21 [BRAZILIN]
Activity (PC-12 [6]): 60.46% | Activity (PC-12 [11]): 66.74% | Activity (PC-12 [23]): ~20% | Activity (PC-12 [18]): 82.15%

O=C(/C=C/c1ccc(O)c(O)c1)O[C@@H]1C[C@](O)(C(=O)O)C[C@@H](O)[C@H]1O [CHLOROGENIC ACID]
Activity (Caenorhabditis elegans [24]): ~50% | Activity (Caenorhabditis elegans [25]): ~5%
